Assay results as given in US20170334899A1, “AMINO-SUBSTITUTED ISOTHIAZOLES” (Bayer Pharma Aktiengesellschaft, priority 2014, published 2017).

How the values were obtained:
CDK2/CycE = molecular target: T1, CDK2/CycE (Homo sapiens, UniProt P24941); experiment: CDK2/CycE kinase assay (TR-FRET); format: biochemical; details: avg, read-out: CDK2 avg (IC50 [mol/l])
T1 construct: GST; purchased ProQinase GmbH (Freiburg, Germany); host or cells: insect cells (Sf9)
In short: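 Read-out is a TR-FRET 665/620 nm emission ratio from EDTA-stopped reactions detected with anti-pRB(pSer807/pSer811), Eu-labelled anti-mouse IgG and streptavidin-XL665, scaled between no-enzyme and uninhibited wells. Reaction: Sf9-expressed GST-CDK2/GST-CycE, 15 min compound preincubation, 10 μM ATP, 0.75 μM biotin-peptide, 25 min, 22° C., pH 8.0 Tris buffer.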

HeLa = experiment: Proliferation assay (crystal violet), HeLa; format: cell-based; details: Homo sapiens, HeLa, 96 h, HeLa cells; 4 days incubation; crystal violet staining; read-out: IC50 inhibition of proliferation, HeLa
In short: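 Four-day compound exposure (0.001-10 μM, 0.5% DMSO final) began 24 h after seeding 1000-5000 cells/well in medium with 10% fetal calf serum. Cell number read by crystal violet absorbance at 595 nm, scaled between day-zero plate and untreated control; 4-parameter fit gave IC50.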

| IC50 (CDK2/CycE) [µM] | IC50 (HeLa) [µM] | SMILES |
| --- | --- | --- |
| ≥ 20 | 0.57 | COCCOc1ccc(NC(=O)c2c(C)nsc2Nc2nc3c(C(F)(F)F)cccc3s2)cc1F [Example 1, N-[3-Fluoro-4-(2-methoxyethoxy)phenyl]-3-methyl-5-{[4-(trifluoromethyl)-1,3-benzothiazol-2-yl]amino}-1,2-thiazole-4-carboxamide] |
| ≥ 20 | 4.9 | Cc1nsc(Nc2nc3c(C(F)(F)F)cccc3s2)c1C(=O)Nc1ccc(OCCO)nc1 [Example 2, N-[6-(2-Hydroxyethoxy)pyridin-3-yl]-3-methyl-5-{[4-(trifluoromethyl)-1,3-benzo-thiazol-2-yl]amino}-1,2-thiazole-4-carboxamide] |
| – | 0.91 | COCCOc1ccc(NC(=O)c2c(C)nsc2Nc2nc3c(C(F)(F)F)cccc3s2)cn1 [Example 3, N-[6-(2-Methoxyethoxy)pyridin-3-yl]-3-methyl-5-{[4-(trifluoromethyl)-1,3-benzo-thiazol-2-yl]amino}-1,2-thiazole-4-carboxamide] |
| ≥ 20 | 1.8 | Cc1nsc(Nc2nc3c(C(F)(F)F)cccc3s2)c1C(=O)Nc1ccc(OCCO)c(F)c1 [Example 4, N-[3-Fluoro-4-(2-hydroxyethoxy)phenyl]-3-methyl-5-{[4-(trifluoromethyl)-1,3-benzothiazol-2-yl]amino}-1,2-thiazole-4-carboxamide] |
| ≥ 20 | 0.56 | Cc1nsc(Nc2cnc(C(F)(F)F)cn2)c1C(=O)Nc1ccc(OC2CCN(C(=O)OC(C)(C)C)CC2)nc1 [Example 5, tert-Butyl 4-[(5-{[(3-methyl-5-{[5-(trifluoromethyl)pyrazin-2-yl]amino}-1,2-thiazol-4-yl)carbonyl]amino}pyridin-2-yl)oxy]piperidine-1-carboxylate] |
| ≥ 20 | 10 | Cc1nsc(Nc2cc(C#N)ccn2)c1C(=O)Nc1ccc(OC2CCCNC2)nc1 (stereo not drawn) [Example 35, 5-[(4-Cyanopyridin-2-yl)amino]-3-methyl-N-[6-(piperidin-3-yloxy)pyridin-3-yl]-1,2-thiazole-4-carboxamide] |
| ≥ 20 | 1.1 | Cc1nsc(Nc2ccc(C#N)cn2)c1C(=O)Nc1ccc(OC2CCCN(C(=O)OC(C)(C)C)C2)nc1 (stereo not drawn) [Example 36, tert-Butyl 3-({5-[({5-[(5-cyanopyridin-2-yl)amino]-3-methyl-1,2-thiazol-4-yl}-carbonyl)amino]pyridin-2-yl}oxy)piperidine-1-carboxylate] |
| ≥ 20 | 10 | Cc1nsc(Nc2ccc(C#N)cn2)c1C(=O)Nc1ccc(OC2CCCNC2)nc1 (stereo not drawn) [Example 37, 5-[(5-Cyanopyridin-2-yl)amino]-3-methyl-N-[6-(piperidin-3-yloxy)pyridin-3-yl]-1,2-thiazole-4-carboxamide] |
| ≥ 20 | 8.1 | Cc1nsc(Nc2ccc(C#N)cn2)c1C(=O)Nc1ccc(OC2CCCN(CCF)C2)nc1 (stereo not drawn) [Example 38, 5-[(5-Cyanopyridin-2-yl)amino]-N-(6-{[1-(2-fluoroethyl)piperidin-3-yl]oxy}pyridin-3-yl)-3-methyl-1,2-thiazole-4-carboxamide] |
| ≥ 20 | 1.1 | Cc1nsc(Nc2ccc(C#N)cn2)c1C(=O)Nc1ccc(OC2CCCN(CC(F)F)C2)nc1 (stereo not drawn) [Example 39, 5-[(5-Cyanopyridin-2-yl)amino]-N-(6-{[1-(2,2-difluoroethyl)piperidin-3-yl]oxy}-pyridin-3-yl)-3-methyl-1,2-thiazole-4-carboxamide] |
| ≥ 20 | 0.54 | Cc1nsc(Nc2ccc(C#N)cn2)c1C(=O)Nc1ccc(OC2CCCN(CC(F)(F)F)C2)nc1 (stereo not drawn) [Example 40, 5-[(5-Cyanopyridin-2-yl)amino]-3-methyl-N-(6-{[1-(2,2,2-trifluoroethyl)piperidin-3-yl]oxy}pyridin-3-yl)-1,2-thiazole-4-carboxamide] |
| ≥ 20 | 10 | Cc1nsc(Nc2cnccn2)c1C(=O)Nc1ccc(OC2CCCN(C(=O)OC(C)(C)C)C2)nc1 (stereo not drawn) [Example 41, tert-Butyl 3-{[5-({[3-methyl-5-(pyrazin-2-ylamino)-1,2-thiazol-4-yl]carbonyl}amino)-pyridin-2-yl]oxy}piperidine-1-carboxylate] |
| ≥ 20 | 2.3 | Cc1nsc(Nc2cnc3ccccc3n2)c1C(=O)Nc1ccc(OCCCNC(=O)OC(C)(C)C)nc1 [Example 42, tert-Butyl (3-{[5-({[3-methyl-5-(quinoxalin-2-ylamino)-1,2-thiazol-4-yl]carbonyl}-amino)pyridin-2-yl]oxy}propyl)carbamate] |
| ≥ 20 | 10 | Cc1nsc(Nc2cc(C#N)ccn2)c1C(=O)Nc1ccc(OCCCNC(=O)OC(C)(C)C)nc1 [Example 43, tert-Butyl [3-({5-[({5-[(4-cyanopyridin-2-yl)amino]-3-methyl-1,2-thiazol-4-yl}-carbonyl)amino]pyridin-2-yl}oxy)propyl]carbamate] |
| ≥ 20 | 10 | Cc1nsc(Nc2cc(C#N)ccn2)c1C(=O)Nc1ccc(OCCCN)nc1 [Example 44, N-[6-(3-Aminopropoxy)pyridin-3-yl]-5-[(4-cyanopyridin-2-yl)amino]-3-methyl-1,2-thiazole-4-carboxamide] |
| ≥ 20 | 10 | Cc1nsc(Nc2cc(C#N)ccn2)c1C(=O)Nc1ccc(OCCCNCC(F)F)nc1 [Example 45, 5-[(4-Cyanopyridin-2-yl)amino]-N-(6-{3-[(2,2-difluoroethyl)amino]propoxy}pyridin-3-yl)-3-methyl-1,2-thiazole-4-carboxamide] |
| ≥ 20 | 10 | Cc1nsc(Nc2ccc(C#N)cn2)c1C(=O)Nc1ccc(OCCCNC(=O)OC(C)(C)C)nc1 [Example 46, tert-Butyl [3-({5-[({5-[(5-cyanopyridin-2-yl)amino]-3-methyl-1,2-thiazol-4-yl}-carbonyl)amino]pyridin-2-yl}oxy)propyl]carbamate] |
| ≥ 20 | 10 | Cc1nsc(Nc2cnccn2)c1C(=O)Nc1ccc(OCCCNC(=O)OC(C)(C)C)nc1 [Example 47, tert-Butyl (3-{[5-({[3-methyl-5-(pyrazin-2-ylamino)-1,2-thiazol-4-yl]carbonyl}-amino)pyridin-2-yl]oxy}propyl)carbamate] |
| ≥ 20 | 10 | Cc1nsc(Nc2cnccn2)c1C(=O)Nc1ccc(OCCCN)nc1 [Example 48, N-[6-(3-Aminopropoxy)pyridin-3-yl]-3-methyl-5-(pyrazin-2-ylamino)-1,2-thiazole-4-carboxamide] |
| ≥ 20 | 0.89 | Cc1nsc(Nc2cnc3ccccc3n2)c1C(=O)Nc1cccc(C(=O)OC(C)(C)C)c1 [Example 49, tert-Butyl 3-({[3-methyl-5-(quinoxalin-2-ylamino)-1,2-thiazol-4-yl]carbonyl}amino)-benzoate] |
| ≥ 20 | 1.9 | COC(=O)c1cccc(NC(=O)c2c(C)nsc2Nc2cnc3ccccc3n2)c1 [Example 50, Methyl 3-({[3-methyl-5-(quinoxalin-2-ylamino)-1,2-thiazol-4-yl]carbonyl}amino)-benzoate] |
| ≥ 20 | 10 | Cc1nsc(Nc2cnc3ccccc3n2)c1C(=O)Nc1cccc(C(=O)O)c1 [Example 51, 3-({[3-Methyl-5-(quinoxalin-2-ylamino)-1,2-thiazol-4-yl]carbonyl}amino)benzoic acid] |
| ≥ 20 | 10 | Cc1nsc(Nc2cnc3ccccc3n2)c1C(=O)Nc1cccc(C(=O)N2CCOCC2)c1 [Example 52, 3-Methyl-N-[3-(morpholin-4-ylcarbonyl)phenyl]-5-(quinoxalin-2-ylamino)-1,2-thiazole-4-carboxamide] |
| ≥ 20 | 2.7 | Cc1nsc(Nc2cnc3ccccc3n2)c1C(=O)Nc1cccc(C(=O)NC(C)(C)C)c1 [Example 53, N-[3-(tert-Butylcarbamoyl)-phenyl]-3-methyl-5-(quinoxalin-2-ylamino)-1,2-thiazole-4-carboxamide] |
| ≥ 20 | 10 | Cc1nsc(Nc2cnc3ccccc3n2)c1C(=O)Nc1cccc(C(=O)NCC(=O)OC(C)(C)C)c1 [Example 54, tert-Butyl N-[3-({[3-methyl-5-(quinoxalin-2-ylamino)-1,2-thiazol-4-yl]carbonyl}amino)-benzoyl]glycinate] |
| ≥ 20 | 10 | Cc1nsc(Nc2cnc3ccccc3n2)c1C(=O)Nc1cccc(C(=O)N2CCN(C(=O)OC(C)(C)C)CC2)c1 [Example 55, tert-Butyl 4-[3-({[3-methyl-5-(quinoxalin-2-ylamino)-1,2-thiazol-4-yl]carbonyl}amino)-benzoyl]piperazine-1-carboxylate] |
| – | 0.44 | Cc1nsc(Nc2ccc(C#N)cn2)c1C(=O)Nc1ccc(OC[C@H]2CCN(CC(F)(F)F)C2)nc1 [Example 405, 5-[(5-Cyanopyridin-2-yl)amino]-3-methyl-N-(6-{[(35)-1-(2,2,2-trifluoroethyl)pyrrolidin-3-yl]methoxy}pyridin-3-yl)-1,2-thiazole-4-carboxamide] |
| – | 0.53 | CCN1CC[C@H](Oc2ccc(NC(=O)c3c(C)nsc3Nc3cnc(C(F)(F)F)cn3)cn2)[C@H](F)C1 [Example 424, N-(6-{[(3R,4S)-1-Ethyl-3-fluoropiperidin-4-yl]oxy}pyridin-3-yl)-3-methyl-5-{[5-(trifluoromethyl)pyrazin-2-yl]amino}-1,2-thiazole-4-carboxamide] |
| – | 5.4 | Cc1nsc(Nc2ccc(C#N)cn2)c1C(=O)Nc1ccc(Nc2ccc(F)c(F)c2)nc1 [Example 433, 5-[(5-Cyanopyridin-2-yl)amino]-N-{6-[(3,4-difluorophenyl)amino]pyridin-3-yl}-3-methyl-1,2-thiazole-4-carboxamide] |
